According to PubChem BioAssay (NCI):
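A five-concentration, 48-hour dose response in 96-well plates underlies each endpoint, interpolated linearly between surrounding concentrations. GI50 is the concentration that inhibits growth by half. At the TGI there is no net growth.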

What was measured:
Assay in all cases: NCI-60 cell line screen, 48 h
MCF7 breast = system: MCF7 breast
MDA-MB-231 breast = system: MDA-MB-231 breast
HOP-92 NSCLC = system: HOP-92 NSCLC
CAKI-1 renal = system: CAKI-1 renal
HCT-116 colon = system: HCT-116 colon
SF-539 CNS = system: SF-539 CNS
SN12C renal = system: SN12C renal
SW-620 colon = system: SW-620 colon
HCC-2998 colon = system: HCC-2998 colon
EKVX NSCLC = system: EKVX NSCLC
OVCAR-4 ovarian = system: OVCAR-4 ovarian
TK-10 renal = system: TK-10 renal
ACHN renal = system: ACHN renal

| Compound | TGI (MCF7 breast) [µM] | TGI (MDA-MB-231 breast) [µM] | TGI (HOP-92 NSCLC) [µM] | TGI (CAKI-1 renal) [µM] | TGI (HCT-116 colon) [µM] | TGI (SF-539 CNS) [µM] | TGI (SN12C renal) [µM] | TGI (SW-620 colon) [µM] | TGI (HCC-2998 colon) [µM] | TGI (EKVX NSCLC) [µM] | TGI (OVCAR-4 ovarian) [µM] | TGI (TK-10 renal) [µM] | TGI (ACHN renal) [µM] | GI50 (HCT-116 colon) [µM] | GI50 (OVCAR-4 ovarian) [µM] |
| --- | --- | --- | --- | --- | --- | --- | --- | --- | --- | --- | --- | --- | --- | --- | --- |
| NNC(=O)CC(=O)Nc1cccc(Cl)c1 | > 100 | > 100 | > 100 | > 100 | > 100 | > 100 | > 100 | > 100 | > 100 | > 100 | > 100 | > 100 | > 100 |  |  |
| CCOC(=O)C(NC(=O)c1ccccc1)(Nc1ccc(S(=O)(=O)Nc2ncccn2)cc1)C(F)(F)F (configuration not stated) | > 100 | > 100 | > 100 | > 100 | > 100 | > 100 | > 100 | > 100 | > 100 | > 100 | > 100 | > 100 | > 100 |  |  |
| COc1cc(C)c(/C=C2/N=C(c3ccccc3)OC2=O)c([N+](=O)[O-])c1OC | > 100 | > 100 | > 100 | > 100 | > 100 | > 100 | > 100 | > 100 | > 100 | > 100 | > 100 | > 100 | > 100 |  |  |
| CC(Oc1ccccc1Cl)C(=O)NN1C(=O)CC(=O)N(c2ccccc2)C1=S (configuration not stated) | > 100 | > 100 | 68.8 | > 100 | > 100 | > 100 | > 100 | > 100 | > 100 | > 100 | > 100 | > 100 | > 100 |  |  |
| CSC1NC(c2ccccc2)=C(C#N)C(=O)N1C1OCC(OC(C)=O)C(OC(C)=O)C1OC(C)=O (configuration not stated) | > 100 | > 100 | > 100 | > 100 | > 100 | > 100 | > 100 | > 100 | > 100 | > 100 | > 100 | > 100 | > 100 |  |  |
| Nc1ccc2[nH]c(-c3cccc(C(F)(F)F)c3)cc(=O)c2c1 | > 100 | > 100 | > 100 | > 100 | > 100 | 53 | > 100 | > 100 | > 100 | > 100 | > 100 | > 100 | > 100 | 52 | 62.9 |
| COc1ccc([N+](=O)[O-])c2c(NCCCN(C)C)ccnc12 | > 38.8 | > 73.8 | 4.38 | 42.9 | 22.8 | 17 | 34 | 32.4 | 6.95 | 22.8 | 3.69 | 70.5 | 14.5 |  |  |
| NS(=O)(=O)c1nnc(NC(=O)C23CC4CC(CC(C4)C2)C3)s1 | > 100 | > 100 | > 100 | > 100 | > 100 | > 100 | > 100 | > 100 | > 100 | > 100 | 3.74 | > 100 | > 100 |  |  |
| CCOC(=O)/C=C(\C(=O)OCC)n1ccc(=O)n(Cc2cnnn2CCCCOC(C)=O)c1=O | 18.8 | 38.1 | 5.63 | 6.8 | > 45.3 | 5.44 | 45.3 | > 41.1 | 35.5 | 24.8 | 30.2 | 8.96 | 5.52 |  |  |
| COC(=O)C1Cc2ccc(O)c(O)c2CN1 (configuration not stated) | 32 | 43.3 | 86.7 | > 100 | 52.6 | 32.5 | 30 | 40.7 | > 100 | > 100 | 39.3 | > 100 | > 100 |  |  |
| NC(N)=NS(=O)(=O)c1ccc(N/N=C2/CCOC2=O)cc1 | > 100 | > 100 | > 100 | > 100 | > 100 | > 100 | > 100 | > 100 | > 100 | > 100 | > 100 | > 100 | > 100 |  |  |
| CCOC(=O)NN(C(=O)OCC)C(C(=O)C1=CCCCC1)N(NC(=O)OCC)C(=O)OCC | > 100 | > 100 | > 100 | > 100 | > 100 | > 100 | > 100 | > 100 | > 100 | > 100 | > 100 | > 100 | > 100 |  |  |
| CCCCCCCCCCCCOP(=O)(O)OP(=O)(O)OCC1OC(n2ccc(N)nc2=O)CC1O (configuration not stated) | > 100 | > 100 | > 100 | > 100 | > 100 | > 100 | > 100 | > 100 | > 100 | > 100 | > 100 | > 100 | > 100 |  |  |
| O=[N+]([O-])C(/C=C(\Cl)[N+](=O)[O-])=C1Nc2ccccc2N1 | > 100 | > 100 | 87 | 69.4 | > 100 | 93.3 | > 100 | > 100 | > 100 | > 100 | > 100 | > 100 | > 100 |  |  |
| COC(=O)/C=C\C(C#N)(C#N)N=Cc1cccc(OC)c1 | 38.9 | 29 | 7.29 | 5.17 | 7.14 | 7.83 | 27.1 | 5.68 | 34.4 | 23.8 | 18.8 | 4.78 | 7.63 |  |  |
| S=C(N/N=C(\c1ccccc1)c1ccccn1)NC1CCCCC1 | > 100 | > 100 | > 100 | > 100 | > 100 | > 100 | > 100 | > 100 | > 100 | > 100 | > 100 | > 100 | > 100 |  |  |
| COc1ccc(OC)c(NCC(=O)Nn2cnc3ccc(S(=O)(=O)Nc4cc(OC)ccc4OC)cc3c2=O)c1 | > 100 | > 100 | > 100 | > 100 | > 100 | > 100 | > 100 | > 100 | > 100 | > 100 | > 100 | > 100 | > 100 |  |  |
| COc1ccccc1Cc1ccc(C2C=CC3(CC(=O)C=C3C)C(=O)C2)o1 (configuration not stated) | 34.4 | 50.1 | 75.6 | > 100 | 89.6 | 42.9 | 58.5 | 40.7 | > 100 | > 100 | > 100 | > 100 | > 100 |  |  |
| Cc1cc(Cl)nc2nc(Cl)c(N)cc12 | > 22.2 | 11.5 | 4.46 | 0.871 | 5.92 | 30.6 | 3.21 | 4.08 | 3.59 | 10.5 | 8.91 | 13.6 | 18.4 |  |  |
| COc1cc2c(c(OC)c1OC)C(=O)[C@@H]1[C@H]2N1C(=O)NCCCl | > 100 | > 100 | > 100 | > 100 | > 100 | > 100 | > 100 | > 100 | > 100 | > 100 | > 100 | > 100 | > 100 |  |  |
| Cc1nc(SCC(=O)Nc2ccc(Cl)cc2)c2sc(=S)n(-c3ccccc3)c2n1 | > 10 | > 10 | > 10 | > 10 | > 10 | > 10 | > 10 | > 10 | > 10 | > 10 | > 10 | > 10 | > 10 |  |  |
| CC(=O)c1[nH]c(NC(C)C)c(C(=S)Nc2ccccc2)c1N | 42.2 | 66.3 | 92.4 | > 100 | 64.4 | > 100 | 75.1 | > 100 | 75.5 | > 100 | > 100 | > 100 | > 100 |  |  |
| CCCNC(=S)N/N=C(\C)c1ccc(S(=O)(=O)N(C)c2ccccc2)cc1 | > 100 | > 100 | > 100 | 97.7 | > 100 | 21.7 | > 100 | > 100 | > 100 | > 100 | > 100 | > 91.6 | > 64.9 |  |  |
| O=C(Cc1ccccc1F)NC1=C(Cl)C(=O)c2ccccc2C1=O | 21.4 | 13.8 | 2.49 | 9.42 | 5.12 | 1.93 | 16.8 | 3.81 | 15.2 | 18 | 5.65 | 5.29 | 2.02 |  |  |
| CCCCCCCCCCCC(=O)OC[C@H](C[As](=O)(O)O)OC(=O)CCCCCCCCCCC | 21.9 | 16.3 | 3.85 | 20.8 | 21.7 | 38.6 | 16.4 | 27.4 | 22.4 | 25.6 | 37.7 | 15.1 | 9.07 |  |  |
